Paper PMC6246607, “Novel AR-12 derivatives, P12-23 and P12-34, inhibit flavivirus replication by blocking host de novo pyrimidine biosynthesis” (Emerging Microbes & Infections, 2018)
Where “and” joins values, the source holds several entries; their conditions need not be identical. Equal entries are not always repeated.

Columns and labels:
[1] = tested on: JEV-eGFP; assay: microbe, parasite or virus in culture; assay type: cell-based, Japanese encephalitis virus
Protocol: (§1) Approximately 50% of confluent cells seeded in 96-well plates were infected with viruses in the presence of drugs or DMSO as a solvent control. At 24 h post-infection (hpi), cells were fixed with 4% paraformaldehyde at room temperature (RT) for 20 min, permeated with a 0.5% Triton X-100 buffer for 2 min, and blocked with 3% BSA for 30 min. Nuclei were stained with DAPI (Sigma) at RT for 20 min. Viral NS3 was stained with a mouse anti-NS3 monoclonal antibody (mAb)[47] followed by staining with an Alexa Fluor 488-conjugated goat anti-mouse IgG antibody (ThermoFisher) at RT for 1 h. Nine images from different fields per well were acquired and analyzed using an ImageXpress Micro XLS Widefield High-Content Analysis System (Molecular Devices, Sunnyvale, USA). To quantify viral infection, the fluorescence intensities of viral NS3 or eGFP from the reporter virus were measured using MetaXpress® (Molecular Devices, Sunnyvale, USA) and were calculated with a mock control (infection as 0%) and a DMSO solvent control (infection as 100%).

[2] = tested on: A549 cells; assay: LDH release cytotoxicity assay; assay type: cell-based, human; settings: 24 h
Protocol: (§2) Cells were treated with compounds at the indicated concentrations for 24 h. The release of lactate dehydrogenase (LDH) was measured using a Cytotoxicity Detection Kit (Roche, Basel, Switzerland) after removing cell debris. Cells treated with 1% Triton X-100 were used to determine the maximal LDH release.

[3] = LDH release cytotoxicity assay; assay type: cell-based, human; settings: human, A549 cells
Protocol: as §2

[4] = tested on: ZIKV; assay: High-content image analysis of ZIKV infection (NS3) in A549 cells; assay type: cell-based, Zika virus; settings: ZIKV
Protocol: as §1

[5] = tested on: DENV-2-eGFP; assay: microbe, parasite or virus in culture; assay type: cell-based, dengue virus
Protocol: as §1

| Compound | SI (CC50/IC50) ([1]; JEV-eGFP, A549 cells) | IC50 ([1]; Japanese encephalitis virus, A549, 24 h) [nM] | CC50 ([2]; A549 cells) [nM] | noncytotoxic concentrations ([2]; human A549 cells) [µM] | CC50 at 24 h [3] [nM] | SI (CC50/IC50) ([4]; A549 cells) | IC50 ([4]; Zika virus, MOI 0.5, A549 cells, 24 h) [nM] | SI (CC50/IC50) ([5]; DENV-2-eGFP, A549 cells) | IC50 ([5]; Dengue virus, DENV2, A549, 24 h) [nM] | anti-DENV activity with uridine supplement ([5]; uridine 50 µg/ml, P12-23 1 µM, P12-34 1 µM, AR-12 5 µM, A549 cells) | effect on DENV replication ([5]; A549 cells, DENV-2-eGFP MOI 5, reversed by exogenous uridine 50 µg/ml) |
| --- | --- | --- | --- | --- | --- | --- | --- | --- | --- | --- | --- |
| NCC(=O)Nc1ccc(-n2nc(C(F)(F)F)cc2-c2ccc3c(ccc4ccccc43)c2)cc1 [AR-12] | 42.3 ± 4.1 | 510 ± 52.4 | 21400 ± 200 | ≤ 12.5 | ~20000 | 15.8 ± 2 | 1370 ± 177 | 33 and 33.2 ± 5.9 | 660 ± 130 | abolished |  |
| O=C(N[C@@H]1CCCc2c1[nH]c1ccc(Cl)cc21)c1ccccn1 [GSK983, reference compound] |  |  |  |  |  |  |  |  |  |  | reduced DENV replication in a dose-dependent manner |
